Data reported in ChEMBL document CHEMBL4411284, “Discovery of novel quaternary ammonium compounds based on quinuclidine-3-ol as new potential antimicrobial candidates” (Eur J Med Chem, 2019).
Activity calls are given as the source filed them. The rule behind the calls is not given here.

Assays:
Staphylococcus aureus [1] = assay: Antimicrobial activity against Staphylococcus aureus ATCC 29213 after 24 to 48 hrs by broth microdilution assay; assay type: functional
Staphylococcus aureus [2] = assay: Antimicrobial activity against methicillin-resistant Staphylococcus aureus clinical isolate after 24 to 48 hrs by broth microdilution assay; assay type: functional
Enterococcus faecalis [3] = assay: Antimicrobial activity against Enterococcus faecalis ATCC 29212 after 24 to 48 hrs by broth microdilution assay; assay type: functional
Streptococcus pyogenes [4] = assay: Antimicrobial activity against Streptococcus pyogenes ATCC 19615 after 24 to 48 hrs by broth microdilution assay; assay type: functional
Listeria monocytogenes [5] = assay: Antimicrobial activity against Listeria monocytogenes ATCC 19111 (1/2a) after 24 to 48 hrs by broth microdilution assay; assay type: functional
Escherichia coli [6] = assay: Antimicrobial activity against Escherichia coli ATCC 25922 after 24 to 48 hrs by broth microdilution assay; assay type: functional
Escherichia coli [7] = assay: Antimicrobial activity against Escherichia coli clinical isolate after 24 to 48 hrs by broth microdilution assay; assay type: functional
Klebsiella pneumoniae [8] = assay: Antimicrobial activity against Klebsiella pneumoniae ATCC 13883 after 24 to 48 hrs by broth microdilution assay; assay type: functional
Klebsiella pneumoniae [9] = assay: Antimicrobial activity against Klebsiella pneumoniae clinical isolate after 24 to 48 hrs by broth microdilution assay; assay type: functional
Salmonella typhimurium [10] = assay: Antimicrobial activity against Salmonella typhimurium WDCM 00031 after 24 to 48 hrs by broth microdilution assay; assay type: functional, Salmonella enterica subsp. enterica serovar Typhimurium; conditions: Salmonella enterica
Pseudomonas aeruginosa [11] = assay: Antimicrobial activity against Pseudomonas aeruginosa ATCC 27853 after 24 to 48 hrs by broth microdilution assay; assay type: functional
Acinetobacter baumannii [12] = assay: Antimicrobial activity against Acinetobacter baumannii ATCC 19606 after 24 to 48 hrs by broth microdilution assay; assay type: functional; conditions: ATCC 19606 = CIP 70.34 = JCM 6841
Acinetobacter baumannii [13] = assay: Antimicrobial activity against Acinetobacter baumannii clinical isolate after 24 to 48 hrs by broth microdilution assay; assay type: functional
Candida albicans = assay: Antifungal activity against Candida albicans ATCC 90029 after 24 to 48 hrs by broth microdilution assay; assay type: functional
Aspergillus niger = assay: Antifungal activity against Aspergillus niger after 24 to 48 hrs by broth microdilution assay; assay type: functional
Penicillium citrinum = assay: Antifungal activity against Penicillium citrinum after 24 to 48 hrs by broth microdilution assay; assay type: functional
Staphylococcus aureus [14] = assay: Bactericidal activity against Staphylococcus aureus ATCC 29213 preincubated for 24 to 48 hrs followed by replating on MHA plates and measured after 18 hrs by broth microdilution assay; assay type: functional
Staphylococcus aureus [15] = assay: Bactericidal activity against methicillin-resistant Staphylococcus aureus clinical isolate preincubated for 24 to 48 hrs followed by replating on MHA plates and measured after 18 hrs by broth microdilution assay; assay type: functional
Enterococcus faecalis [16] = assay: Bactericidal activity against Enterococcus faecalis ATCC 29212 preincubated for 24 to 48 hrs followed by replating on MHA plates and measured after 18 hrs by broth microdilution assay; assay type: functional
Streptococcus pyogenes [17] = assay: Bactericidal activity against Streptococcus pyogenes ATCC 19615 preincubated for 24 to 48 hrs followed by replating on MHA plates and measured after 18 hrs by broth microdilution assay; assay type: functional
Listeria monocytogenes [18] = assay: Bactericidal activity against Listeria monocytogenes ATCC 19111 (1/2a) preincubated for 24 to 48 hrs followed by replating on MHA plates and measured after 18 hrs by broth microdilution assay; assay type: functional
Escherichia coli [19] = assay: Bactericidal activity against Escherichia coli ATCC 25922 preincubated for 24 to 48 hrs followed by replating on MHA plates and measured after 18 hrs by broth microdilution assay; assay type: functional
Escherichia coli [20] = assay: Bactericidal activity against Escherichia coli clinical isolate preincubated for 24 to 48 hrs followed by replating on MHA plates and measured after 18 hrs by broth microdilution assay; assay type: functional
Klebsiella pneumoniae [21] = assay: Bactericidal activity against Klebsiella pneumoniae ATCC 13883 preincubated for 24 to 48 hrs followed by replating on MHA plates and measured after 18 hrs by broth microdilution assay; assay type: functional
Klebsiella pneumoniae [22] = assay: Bactericidal activity against Klebsiella pneumoniae clinical isolate preincubated for 24 to 48 hrs followed by replating on MHA plates and measured after 18 hrs by broth microdilution assay; assay type: functional
Salmonella typhimurium [23] = assay: Bactericidal activity against Salmonella typhimurium WDCM 00031 preincubated for 24 to 48 hrs followed by replating on MHA plates and measured after 18 hrs by broth microdilution assay; assay type: functional, Salmonella enterica subsp. enterica serovar Typhimurium; conditions: Salmonella enterica
Pseudomonas aeruginosa [24] = assay: Bactericidal activity against Pseudomonas aeruginosa ATCC 27853 preincubated for 24 to 48 hrs followed by replating on MHA plates and measured after 18 hrs by broth microdilution assay; assay type: functional
Acinetobacter baumannii [25] = assay: Bactericidal activity against Acinetobacter baumannii ATCC 19606 preincubated for 24 to 48 hrs followed by replating on MHA plates and measured after 18 hrs by broth microdilution assay; assay type: functional; conditions: ATCC 19606 = CIP 70.34 = JCM 6841
Acinetobacter baumannii [26] = assay: Bactericidal activity against Acinetobacter baumannii clinical isolate preincubated for 24 to 48 hrs followed by replating on MHA plates and measured after 18 hrs by broth microdilution assay; assay type: functional
HEK293 = assay: Cytotoxicity against HEK293 cells assessed as reduction in cell viability after 48 hrs by MTS assay; assay type: cell-based; conditions: Homo sapiens, HEK293, 48 h
TERT-RPE1 = assay: Cytotoxicity against human RPE1 cells assessed as reduction in cell viability after 48 hrs by MTS assay; assay type: cell-based; conditions: RPE-1, 48 h
Staphylococcus aureus [27] = assay: Induction of morphological changes in Staphylococcus aureus ATCC 29213 assessed as cell wall damage at MIC after 1 hr by atomic force microscopic analysis; assay type: functional, organism-based
HeLa = assay: Cytotoxicity against human HeLa cells assessed as reduction in cell viability after 48 hrs by MTS assay; assay type: cell-based

SMILES: CCCCCCCCCCCC[N+]12CCC(CC1)C(O)C2.[Br-] (stereo unspecified)
- MIC (Staphylococcus aureus [1]): 15.6 µg/mL
- MIC (Staphylococcus aureus [2]): 62.5 µg/mL
- MIC (Enterococcus faecalis [3]): 15.6 µg/mL
- MIC (Streptococcus pyogenes [4]): 0.48 µg/mL
- MIC (Listeria monocytogenes [5]): 31.2 µg/mL
- MIC (Escherichia coli [6]): 62.5 µg/mL
- MIC (Escherichia coli [7]): 62.5 µg/mL
- MIC (Klebsiella pneumoniae [8]): 125 µg/mL
- MIC (Klebsiella pneumoniae [9]): 250 µg/mL
- MIC (Salmonella typhimurium [10]): 250 µg/mL
- MIC (Pseudomonas aeruginosa [11]): 250 µg/mL
- MIC (Acinetobacter baumannii [12]): 125 µg/mL
- MIC (Acinetobacter baumannii [13]): 62.5 µg/mL
- MIC50 (Candida albicans): 1.95 µg/mL
- MIC90 (Candida albicans): 3.9 µg/mL
- MIC50 (Aspergillus niger): 7.8 µg/mL
- MIC90 (Aspergillus niger): 15.6 µg/mL
- MIC50 (Penicillium citrinum): 31.2 µg/mL
- MIC90 (Penicillium citrinum): 62.5 µg/mL
- MBC (Staphylococcus aureus [14]): 15.6 µg/mL
- MBC (Staphylococcus aureus [15]): 62.5 µg/mL
- MBC (Enterococcus faecalis [16]): 15.6 µg/mL
- MBC (Streptococcus pyogenes [17]): 0.48 µg/mL
- MBC (Listeria monocytogenes [18]): 31.2 µg/mL
- MBC (Escherichia coli [19]): 62.5 µg/mL
- MBC (Escherichia coli [20]): 62.5 µg/mL
- MBC (Klebsiella pneumoniae [21]): 125 µg/mL
- MBC (Klebsiella pneumoniae [22]): 250 µg/mL
- MBC (Salmonella typhimurium [23]): 250 µg/mL
- MBC (Pseudomonas aeruginosa [24]): 500 µg/mL
- MBC (Acinetobacter baumannii [25]): 250 µg/mL
- MBC (Acinetobacter baumannii [26]): 125 µg/mL
- IC50 (HEK293): 1 µg/mL
- IC50 (TERT-RPE1): 8 µg/mL

SMILES: CCCCCCCCCCCC[N+](C)(C)Cc1ccccc1.[Br-]
- MIC (Staphylococcus aureus [1]): 1.5 µg/mL
- MIC (Escherichia coli [6]): 3.9 µg/mL
- MBC (Staphylococcus aureus [14]): 1.5 µg/mL
- MBC (Escherichia coli [19]): 3.9 µg/mL
- Activity (Staphylococcus aureus [27]): Active
- IC50 (HEK293): 1 µg/mL
- IC50 (HeLa): 3.98 µg/mL
